Source: patent publication US8030498B2, “Benzoylpyrazole compounds and herbicides containing them” (Ishihara Sangyo Kaisha, Ltd., priority 2005, dated 2011)

What was measured:
[1] = tested on: soybean (Glycine max Merr.); test: Test Example 1: foliar treatment, growth inhibition rate, soybean; format: in vivo; details: 31 g/ha active ingredient, visually observed 17th to 23rd day after application
How it was run: (§1)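 Visual scoring of growth inhibition, 0% (untreated) to 100% (complete kill), on days 17–23 following post-emergence spray of formulated compound in water (500 L/ha, 0.1 vol % spreader); plants treated at set leaf stages, e.g. corn 2.0–3.5, wheat 1.7–3.4.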

corn = test: Test Example 2: soil application on the day after sowing, growth inhibition rate, corn; format: in vivo, Zea mays L.; details: 250 g/ha active ingredient, observed on 19th to 24th day
How it was run: (§2)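 Upland soil pots sown with crop and weed seeds; next day wettable powder or emulsifiable concentrate at prescribed active-ingredient amounts, diluted to 500 L/ha water, sprayed onto soil. Growth inhibition scored visually 19–24 days later, 0 (as untreated) to 100% (complete kill).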

soybean = test: Test Example 2: soil application on the day after sowing, growth inhibition rate, soybean; format: in vivo, Glycine max Merr.; details: 250 g/ha active ingredient, observed on 19th to 24th day
How it was run: as §2

[2] = tested on: greenfoxtail (Setaria viridis L.); test: Test Example 1: foliar treatment, growth inhibition rate, greenfoxtail; format: in vivo; details: 31 g/ha active ingredient, visually observed 17th to 23rd day after application
How it was run: (§3)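 Visual growth inhibition rating, 0% (as untreated) to 100% (complete kill), taken 17–23 d after foliar spray. Compound was formulated as wettable powder or EC, diluted to 500 L/ha water with 0.1 vol % agricultural spreader, and applied to pot-grown seedlings of corn (2.0–3.5 leaf), greenfoxtail (1.0–3.0), rice (1.0–2.5) and wheat (1.7–3.4).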

[3] = tested on: barnyardgrass (Echinochloa crus-galli L.); test: Test Example 1: foliar treatment, growth inhibition rate, barnyardgrass; format: in vivo; details: 31 g/ha active ingredient, visually observed 17th to 23rd day after application
How it was run: (§4)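 Potted upland soil; compounds as wettable powders or emulsifiable concentrates diluted in water at 500 L/ha plus 0.1 vol % spreader, foliar-sprayed at defined leaf stages (rice 1.0–2.5, wheat 1.7–3.4, corn 2.0–3.5, greenfoxtail 1.0–3.0). Growth inhibition (0–100%) scored visually 17–23 days after application.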

wheat (Triticum spp.) = test: Test Example 1: foliar treatment, growth inhibition rate, wheat; format: in vivo; details: 31 g/ha active ingredient, visually observed 17th to 23rd day after application
How it was run: as §3

redroot pigweed = test: Test Example 2: soil application on the day after sowing, growth inhibition rate, redroot pigweed; format: in vivo, Amaranthus retroflexus L.; details: 250 g/ha active ingredient, observed on 19th to 24th day
How it was run: as §2

wheat = test: Test Example 2: soil application on the day after sowing, growth inhibition rate, wheat; format: in vivo, Triticum spp.; details: 250 g/ha active ingredient, observed on 19th to 24th day
How it was run: as §2

crabgrass = test: Test Example 2: soil application on the day after sowing, growth inhibition rate, crabgrass; format: in vivo, Digitaria sanguinalis L.; details: 250 g/ha active ingredient, observed on 19th to 24th day
How it was run: as §2

[4] = tested on: velvetleaf (Abutilon theophrasti MEDIC.); test: Test Example 1: foliar treatment, growth inhibition rate, velvetleaf; format: in vivo; details: 31 g/ha active ingredient, visually observed 17th to 23rd day after application
How it was run: as §4

prickly sida = test: Test Example 2: soil application on the day after sowing, growth inhibition rate, prickly sida; format: in vivo, Sida spinosa L.; details: 250 g/ha active ingredient, observed on 19th to 24th day
How it was run: as §2

corn (Zea mays L.) = test: Test Example 1: foliar treatment, growth inhibition rate, corn; format: in vivo; details: 31 g/ha active ingredient, visually observed 17th to 23rd day after application
How it was run: as §3

[5] = tested on: prickly sida (Sida spinosa L.); test: Test Example 1: foliar treatment, growth inhibition rate, prickly sida; format: in vivo; details: 31 g/ha active ingredient, visually observed 17th to 23rd day after application
How it was run: as §1

[6] = tested on: crabgrass (Digitaria sanguinalis L.); test: Test Example 1: foliar treatment, growth inhibition rate, crabgrass; format: in vivo; details: 31 g/ha active ingredient, visually observed 17th to 23rd day after application
How it was run: as §1

barnyardgrass = test: Test Example 2: soil application on the day after sowing, growth inhibition rate, barnyardgrass; format: in vivo, Echinochloa crus-galli L.; details: 250 g/ha active ingredient, observed on 19th to 24th day
How it was run: as §2

[7] = tested on: redroot pigweed (Amaranthus retroflexus L.); test: Test Example 1: foliar treatment, growth inhibition rate, redroot pigweed; format: in vivo; details: 31 g/ha active ingredient, visually observed 17th to 23rd day after application
How it was run: as §1

velvetleaf = test: Test Example 2: soil application on the day after sowing, growth inhibition rate, velvetleaf; format: in vivo, Abutilon theophrasti MEDIC.; details: 250 g/ha active ingredient, observed on 19th to 24th day
How it was run: as §2

greenfoxtail = test: Test Example 2: soil application on the day after sowing, growth inhibition rate, greenfoxtail; format: in vivo, Setaria viridis L.; details: 250 g/ha active ingredient, observed on 19th to 24th day
How it was run: as §2

rice (Oryza sativa L.) = test: Test Example 1: foliar treatment, growth inhibition rate, rice; format: in vivo; details: 31 g/ha active ingredient, visually observed 17th to 23rd day after application
How it was run: as §3

rice = test: Test Example 2: soil application on the day after sowing, growth inhibition rate, rice; format: in vivo, Oryza sativa L.; details: 250 g/ha active ingredient, observed on 19th to 24th day
How it was run: as §2

| SMILES | Growth inhibition rate (%) Soybean [1] [%] | Growth inhibition rate (%) Corn (corn) [%] | Growth inhibition rate (%) Soybean (soybean) [%] | Growth inhibition rate (%) Greenfoxtail [2] [%] | Growth inhibition rate (%) Barnyardgrass [3] [%] | Growth inhibition rate (%) Wheat (wheat (Triticum spp.)) [%] | Growth inhibition rate (%) redroot pigweed (redroot pigweed) [%] | Growth inhibition rate (%) Wheat (wheat) [%] | Growth inhibition rate (%) Crabgrass (crabgrass) [%] | Growth inhibition rate (%) Velvetleaf [4] [%] | Growth inhibition rate (%) Prickly sida (prickly sida) [%] | Growth inhibition rate (%) Corn (corn (Zea mays L.)) [%] | Growth inhibition rate (%) Prickly sida [5] [%] | Growth inhibition rate (%) Crabgrass [6] [%] | Growth inhibition rate (%) Barnyardgrass (barnyardgrass) [%] | Growth inhibition rate (%) redroot pigweed [7] [%] | Growth inhibition rate (%) Velvetleaf (velvetleaf) [%] | Growth inhibition rate (%) Greenfoxtail (greenfoxtail) [%] | Growth inhibition rate (%) Rice (rice (Oryza sativa L.)) [%] | Growth inhibition rate (%) Rice (rice) [%] |
| --- | --- | --- | --- | --- | --- | --- | --- | --- | --- | --- | --- | --- | --- | --- | --- | --- | --- | --- | --- | --- |
| CCn1ncc(C(=O)c2ccc(S(C)(=O)=O)c(C(=O)OC)c2C)c1OC(=O)SC(C)C [compound 87] | 95 | 0 | 0 | 100 | 95 | 10 | 95 | 0 | 90 | 95 | 70 | 10 | 75 | 100 | 80 | 100 | 50 | 70 | 90 | 80 |
| CCSC(=O)Oc1c(C(=O)c2ccc(S(C)(=O)=O)c(C#N)c2C)cnn1C [compound 82] | 70 | 0 | 0 | 60 | 70 | 0 | 50 | 0 | 70 | 70 | 80 | 0 | 50 | 40 | 30 | 60 | 20 | 20 | 40 | 10 |
| COCCOc1c(S(C)(=O)=O)ccc(C(=O)c2cnn(C)c2OC(=O)SC(C)C)c1C [compound 207] | 100 | 0 | 20 | 100 | 95 | 0 | 100 | 0 | 100 | 100 | 60 | 0 | 60 | 95 | 100 | 100 | 100 | 100 | 70 | 98 |
| CCOc1c(S(C)(=O)=O)ccc(C(=O)c2cnn(CC)c2OC(=O)SCC)c1C [compound 58] | 98 | 0 | 0 | 100 | 95 | 40 | 90 | 0 | 100 | 100 | 70 | 0 | 70 | 98 | 60 | 90 | 10 | 70 | 80 | 70 |
| CCSC(=O)Oc1c(C(=O)c2ccc(S(C)(=O)=O)c(CC#N)c2C)cnn1C [compound 83] | 95 | 0 | 0 | 100 | 100 | 0 | 90 | 0 | 95 | 95 | 70 | 0 | 70 | 100 | 80 | 80 | 40 | 40 | 80 | 50 |
| C#CCOc1c(S(C)(=O)=O)ccc(C(=O)c2cnn(C)c2OC(=O)SCC)c1C [compound 222] | 100 | 0 | 0 | 80 | 90 | 0 | 100 | 0 | 100 | 60 | 50 | 0 | 30 | 70 | 95 | 100 | 80 | 80 | 70 | 90 |
| CCSC(=O)Oc1c(C(=O)c2ccc(S(C)(=O)=O)c(OCCSC)c2C)cnn1C [compound 81] | 50 | 0 | 0 | 0 | 30 | 0 | 0 | 0 | 0 | 0 | 0 | 10 | 0 | 0 | 0 | 10 | 0 | 10 | 10 | 0 |
| CCn1ncc(C(=O)c2ccc(S(C)(=O)=O)c(C(=O)OC)c2Cl)c1OC(=O)SC [compound 97] | 80 | 0 | 10 | 100 | 100 | 10 | 100 | 0 | 100 | 80 | 100 | 0 | 50 | 70 | 100 | 100 | 100 | 100 | 60 | 70 |
| COC(=O)c1c(S(C)(=O)=O)ccc(C(=O)c2cnn(C)c2OC(=O)SC)c1C [Compound No. 3] | 95 | 0 | 40 | 100 | 95 | 50 | 100 | 0 | 100 | 95 | 95 | 60 | 90 | 95 | 60 | 90 | 70 | 60 | 100 | 95 |
